Here are results for 55 molecules from patent US20110136727A1, “Compositions and methods for rapid selection of pathogen binding agents” (priority 2009, published 2011).

Where a SMILES comes first, the peptide text is derived from it.

The subject of one series is E. coli O111:B4. In words: LPS competition assay on random-sequence peptide microarray (binding of fluorescently labeled bacteria with and without excess free LPS). As to conditions: fluorescent intensity of SYTO 9 labeled E. coli O111:B4 binding to the arrayed peptide without vs with excess non-labeled LPS of the same strain. The protocol:
FIG. 2. Schematic representation of the bacterial binding assay. PEG3,400 linker modified random sequence peptide microarrays were incubated (FIG. 2A) with fluorescently labeled bacteria and (FIG. 2B) with bacteria in presence of excess free LPS.
Microarray screening. Aliquots of the bacterial cultures were centrifuged to isolate the cells and were washed twice with an equal volume of PBS buffer (pH 7.2). After each wash, bacteria were resuspended and centrifuged. Cells were fluorescently stained with SYTO 9 green-fluorescent cell-permeable nucleic acid dye (Molecular Probes, Eugene, Oreg.). Dye was added to a 500 microliter suspension of bacteria at a concentration of 20 μM in PBS buffer and shaken for 1 hr at 37 degrees Centigrade. After incubation, the cell suspension was centrifuged, isolated, and washed twice with 1 ml PBS buffer. […] Each array was equipped with an Agilent hybridization chamber, and then 450 microliter solution of E. coli in PBS buffer supplemented with 0.03% FBS was added. The arrays were gently shaken on a platform for 1 hr at 37 degrees Centigrade temperature. After incubation, the hybridization chamber was removed, and unbound cells were washed away from the array by dipping it into a 50 ml solution of the hybridization buffer. This step was repeated twice, and the buffer was changed between washings. A final wash with nanopure water was used to remove salts from the array. Slides were then briefly centrifuged at 1500 rpm for 2 min to dry the arrays.
Data analysis. The arrays were scanned using a laser scanner (PERKIN-ELMER PROSCANARRAY HT) and quantified using GENEPIX PRO6.0 (Molecular Devices, Inc.) in order to determine the fluorescence intensity of each probe and identify its corresponding peptide sequence. A statistical comparison of microarray data was done with GENESPRING GX 7.3 (AGILENT, INC, Palo Alto, Calif., USA) by importing the image-processed data from GENEPIX PRO6.0. Median signal intensities were used in the calculations. For statistical comparisons, each slide was normalized to 50th percentile. Also, measurements of less than 0.01 were set to 0.01. Results were represented on a heatmap in order to be able to compare the difference in intensities with and without excess LPS.
LPS competition assay. Since approximately 90% of bacterial surface is comprised of LPS it was expected that bacteria will bind to random peptide microarray mostly through LPS. […] Same number of cells stained with SYTO-9® was used to probe the microarrays with and without excess non-labeled LPS from the same strain (FIG. 2).
Take 1 (WWRRKKWHKHKRKHPRFGSC) [compound 1]: the “Ratio ECO/(ECO + LPS)” value worked out at 18.76. For 2 (HWKRRHKHKWPKRHPHKGSC) [compound 2], the “Ratio ECO/(ECO + LPS)” value is 13.22. As for 3 (HWKRHHRPKHKHHRHKHGSC) [compound 3], the “Ratio ECO/(ECO + LPS)” value turned out to be 11.48. Regarding 4 (HFHHWKWKHHHHRHRRFGSC) [compound 4], the “Ratio ECO/(ECO + LPS)” value was 11.28. With 5 (WKKKRKHRHKKHWHPWRGSC) [compound 5], the “Ratio ECO/(ECO + LPS)” value was determined as 10.3.

With 6 (RHWRKPRKWHKKWPPHRGSC) [compound 6], the “Ratio ECO/(ECO + LPS)” value is 9.881. On the same count and under the same terms, with 7 (WKRPWHRWHPKRRKWRHGSC) [compound 7] the figure was 9.611. For 8 (WHHWFHHKKKKPWWKKKGSC) [compound 8], the “Ratio ECO/(ECO + LPS)” value came out at 8.832. Regarding 9 (HFRKWHKRRWKHHKKWKGSC) [compound 9], the “Ratio ECO/(ECO + LPS)” value was determined as 8.435. In the case of 10 (HPWWWHHKKRRHHKHKKGSC) [compound 10], the “Ratio ECO/(ECO + LPS)” value is on record as 5.345. Still for that read-out and setting: with 11 (PWWKWRKRKHPKKHHKRGSC) [compound 11] the figure was 4.687. The same measure, in the same setting: with 12 (WKWKRHWKWPHRRKHFFGSC) [compound 12] the figure was 4.576; with 13 (WHRKFFRWRFHRHKKHKGSC) [compound 13], 4.547; with 14 (HRKRPKRHHKRHWPRWKGSC) [compound 14], 4.429. On the same count and under the same terms, with 15 (KKFHPHFKPWHFRHKKPGSC) [compound 15] the figure was 4.303; with 16 (KHPFWHPHRRHKKKRWFGSC) [compound 16], 4.283. Consider 17 (WHHKWRFWKHFRHKRHFGSC) [compound 17], for which the “Ratio ECO/(ECO + LPS)” value is recorded as 4.216. On the same count and under the same terms, with 18 (SIADIHKRKFRVRRKHIGSC) [compound 18] the figure was 4.04. Same read-out and setting: under 19 (PWKFHRHWHHHKHWKWKGSC) [compound 19] stands 3.644; under 20 (HHWWRKRRRKRHRKHWKGSC) [compound 20], 3.527; under 21 (RWQKKVKMKRDHVYFRMGSC) [compound 21], 3.526. On the same count and under the same terms, with 22 (RWFPKKHHHRWRKWWKKGSC) [compound 22] the figure was 3.506; with 23 (HHHHKRKHFWRPRHPRKGSC) [compound 23], 3.493.

Regarding 24 (HKRHKKHFKFFRWHRKWGSC) [compound 24], the “Ratio ECO/(ECO + LPS)” value came to 3.428. As to 25 (TKRIHKWPQDAYRIRRGGSC) [compound 25], the “Ratio ECO/(ECO + LPS)” value was 3.355. On to 26 (RTYWNYGIMRHNKTRKGGSC) [compound 26], for which the “Ratio ECO/(ECO + LPS)” value is 3.331. Regarding 27 (WHWHHWKHKKRRHHWRRGSC) [compound 27], the “Ratio ECO/(ECO + LPS)” value is 3.261. As to 28 (KHWHWHKRKKHHRKFFWGSC) [compound 28], the “Ratio ECO/(ECO + LPS)” value is recorded as 3.0313. On to 29 (RKHHKKPHKRKRWKWWPGSC) [compound 29], for which the “Ratio ECO/(ECO + LPS)” value was 3.021. Still for that read-out and setting: under 30 (RFHWKHRRKWKHHHPRRGSC) [compound 30] stands 2.944; under 31 (HWHHRWWHHWKHPHHWRGSC) [compound 31], 2.854.

32 (WKFRHRHHRHHWHKKWKGSC) [compound 32]: the “Ratio ECO/(ECO + LPS)” value was 2.844. For 33 (HRKPKFRHHHFKWKHWKGSC) [compound 33], the “Ratio ECO/(ECO + LPS)” value was found to be 2.786. Turning to 34 (RRWWRKRFWHHRWHRRKGSC) [compound 34], the “Ratio ECO/(ECO + LPS)” value is listed as 2.423. 35 (HRWWFKKKHRFRWWKRWGSC) [compound 35]: the “Ratio ECO/(ECO + LPS)” value turned out to be 2.404. Still for that read-out and setting: under 36 (RFFFHKWRRWRRRKPPRGSC) [compound 36] stands 2.378; under 37 (RWRRHKHFKRPHRKHKRGSC) [compound 37], 2.375. Still for that read-out and setting: with 38 (WWHHKWFKHKKFWRHKFGSC) [compound 38] the figure was 2.349; with 39 (WKPWFHPRKHHKWRHWHGSC) [compound 39], 2.334. For 40 (KHKWWRWHKWHWWFRKHGSC) [compound 40], the “Ratio ECO/(ECO + LPS)” value was determined as 2.322. Still for that read-out and setting: under 41 (KWKHHKKFRKRKRHWFHGSC) [compound 41] stands 2.316; under 42 (HWHPRWHKHKFKHWRWHGSC) [compound 42], 2.273. The same measure, in the same setting: with 43 (WRFKHFRWKRFKHHHKKGSC) [compound 43] the figure was 2.263. Same read-out and setting: under 44 (IYNKRSQVRRKGFKKKYGSC) [compound 44] stands 2.169; under 45 (RKRKWHHPWHWRRKRRWGSC) [compound 45], 2.136; under 46 (RHWRPKFRKFRWWRWHHGSC) [compound 46], 2.125. For 47 (FHKKRHFKRRHKFWWWRGSC) [compound 47], the “Ratio ECO/(ECO + LPS)” value worked out at 2.114.

As to 48 (HKWHRKKFHKHRFKHHKGSC) [compound 48], the “Ratio ECO/(ECO + LPS)” value is given as 2.112. The same measure, in the same setting: under 49 (WFWKHKKWRRHPRKWHWGSC) [compound 49] stands 2.104; under 50 (EPKLWFKPRRGGYRHRHGSC) [compound 50], 2.035. On the same count and under the same terms, with 51 (HRKWHWPWKWPWKRKRWGSC) [compound 51] the figure was 2.033; with 52 (RPKPHRHWKPKFPHHHWGSC) [compound 52], 2.031.

For the molecule 53 (WRRSTPVGPWTWFGKFLGSC) [compound 53], the “Ratio ECO/(ECO + LPS)” value is given as 1.974. With 54 (RRFRHWWRWRKRRRKWRGSC) [compound 54], the “Ratio ECO/(ECO + LPS)” value is on record as 1.914.

Tested on in a further series: not listed separately
The experiment in a line: Serum stability (serum incubation and western blot). In kind it is in vitro ADME, human. The following applies: human serum, western blot probed with Streptavidin-AlexaFluor 647 (FIG. 7). The protocol:
Serum stability of Construct 1. Over the last decade, there was a considerable interest in developing antimicrobial peptides as intravenously administered antibiotics. In this respect, a common criticism of peptide-based drugs has been their susceptibility to endogenous proteases. […] To test the in vitro stability of Construct 1 we used a serum-incubation and western blot analysis. Construct 1 was incubated in fresh human serum at 37° C. and pH=7.4 with a starting concentration of 10 μM. Samples were withdrawn at predetermined time points and each sample diluted 20-fold with loading buffer prior to analysis by western blot (FIG. 7).
As for `N=C(N)NCCC[C@H](NC(=O)[C@H](Cc1ccccc1)NC(=O)[C@H](CCCCN)NC(=O)[C@@H]1CCCN1C(=O)[C@H](CCCCN)NC(=O)[C@H](CCCNC(=N)N)NC(=O)[C@@H](N)Cc1c[nH]cn1)C(=O)N[C@@H](Cc1c[nH]cn1)C(=O)N[C@@H](Cc1c[nH]cn1)C(=O)N[C@@H](Cc1c[nH]cn1)C(=O)N[C@@H](Cc1ccccc1)C(=O)N[C@@H](CCCCN)C(=O)N[C@@H](Cc1c[nH]c2ccccc12)C(=O)N[C@@H](CCCCN)C(=O)N[C@@H](Cc1c[nH]cn1)C(=O)N[C@@H](Cc1c[nH]c2ccccc12)C(=O)N[C@@H](CCCCN)C(=O)NCC(=O)N[C@@H](CO)C(=O)N[C@@H](CS)C(=O)O` [SEQ ID NO: 33] (H-HRKPKFRHHHFKWKHWKGSC-OH; N-terminus and C-terminus assumed), the “Degradation in human serum, monomeric peptide vs tetravalent PEG scaffold” value is “degraded much faster”.
